Data taken from US12329741B2, “HBV inhibitor and its use” (priority 2019, dated 2025).

What was measured:
[1] = Cytotoxicity test (Cell-titer Blue method) in HepG2.2.15 cells; type: cell-based; conditions: human, six days after treatment, highest concentration tested 100 μM, read-out: HepG2.2.15 cell viability CC50
Excerpt: (§1) In this experiment, real-time fluorescent quantitative PCR (qPCR) method was used to detect the content of HBV DNA in the supernatant of HepG2.2.15 cells to determine the anti-hepatitis B virus activity of the compound in HepG2.2.15 cells, and to detect cell viability impact of the test compound against HepG2.2.15 by Cell-titer Blue method. In the experiment, entecavir (ETV) was used as a reference compound to monitor the quality of the experiment.
The compound concentration, plate layout, and compound treatment process are consistent with the antiviral experiments. In six days after the cells were treated with the compound, the cell viability was measured with Cell-titer Blue.
Analyze the data and calculate relative cell viability: Use the following formula to calculate the percentage of cell viability: % Cell viability=(sample fluorescence reading-fluorescence reading of culture medium control)/(fluorescence reading of DMSO control-fluorescence reading of the culture medium control)×100.
Finally, GraphPad Prism software was used to calculate the CC50 value of the compound.

hepatitis B virus (HBV) = assay: Anti-hepatitis B virus activity: HBV DNA in supernatant of HepG2.2.15 cells by qPCR; type: cell-based; conditions: 192 h, supernatant collected on day 8
Excerpt: as §1
On day 1, the cells were planted into a 96-well plate, the compound was added to treat the cells on day 2, a new culture medium containing the compound was replaced on day 5, and the supernatant was collected on day 8 to extract DNA. Quantitative PCR was used to detect the content of HBV DNA. Both the test compound and the control compound were diluted in a series of 3 times with 8 concentration points, and 2 replicate wells were measured in parallel. The final concentration of DMSO in the culture medium is 0.5%.
The calculation formula of the inhibition percentage is as follows: % inh.=(1-HBV copy number of sample/HBV copy number of 0.5% DMSO control)×100
EC50 was analyzed by Graphpad Prism software (four parameter logistic equations).

C#Cc1cc(NC(=O)c2cc(C(=O)C(=O)NC(C)(C)C)oc2C)ccc1F [Compound 27, 2-Methyl-3-amide-N-(3-alkynyl-4-fluorophenyl)-5-(2-tert-butylamino-oxalyI)-furan]
CC50 at 6 days [1]: > 100 µM
EC50 (hepatitis B virus (HBV)): 5 to 50 µM

Cc1oc(C(=O)C(=O)NCc2c[nH]nn2)cc1C(=O)Nc1ccc(F)c(Cl)c1 [Compound 17, 2-Methyl-3-amide-N-(3-chloro-4-fluorophenyl)-5-(2-(1H-1,2,3-triazole-4-methylamino)-oxalyl)-furan]
CC50 at 6 days [1]: > 100 µM
EC50 (hepatitis B virus (HBV)): 5 to 50 µM

C#CCNC(=O)C(=O)c1cc(C(=O)Nc2ccc(F)c(Cl)c2)c(C)s1 [Compound 30, 2-Methyl-3-amide-N-(3-chloro-4-fluorophenyl)-5-(2-propargylamino-oxalyl)-thiophene]
CC50 at 6 days [1]: > 100 µM
EC50 (hepatitis B virus (HBV)): 0.5 to 5 µM

COCC1(NC(=O)C(=O)c2c(C)c(C(=O)Nc3ccc4occc4c3)n(C)c2C)COC1 [Compound 62, 1,3,5-trimethyl-2-amide-N-(benzofuran-5-yl)-4-(2-(3-methoxymethyl-3-oxetan)(amino)-oxalyl)-pyrrole]
CC50 at 6 days [1]: > 100 µM
EC50 (hepatitis B virus (HBV)): ≤ 0.05 µM

C#CCNC(=O)C(=O)c1c(C)c(C(=O)Nc2ccc3scnc3c2)n(C)c1C [Compound 70, 1,3,5-Trimethyl-2-amide-N-(benzothiazol-5-yl)-4-(2-propargylamino-oxalyl)-pyrrole]
CC50 at 6 days [1]: > 100 µM
EC50 (hepatitis B virus (HBV)): 0.5 to 5 µM

C#CC1(NC(=O)C(=O)c2c(C)c(C(=O)Nc3ccc4occc4c3)n(C)c2C)CC1 [Compound 55, 1,3,5-Trimethyl-2-amide-N-(benzofuran-5-yl)-4-(2-(1-ethynylcyclopropane-1-amino)-oxalyl)-Pyrrole]
CC50 at 6 days [1]: > 100 µM
EC50 (hepatitis B virus (HBV)): ≤ 0.05 µM

C#CC(C)NC(=O)C(=O)c1cc(C(=O)Nc2ccc(F)c(Cl)c2)c(C)o1 (stereo not shown) [Compound 3, 2-Methyl-3-amide-N-(3-chloro-4-fluorophenyl)-5-(2-(1-methylpropynamido)-oxalyl)-furan]
CC50 at 6 days [1]: > 100 µM
EC50 (hepatitis B virus (HBV)): 0.5 to 5 µM

Cc1sc(C(=O)C(=O)NC(C)(C)C)cc1C(=O)Nc1cc(F)c(F)c(F)c1 [Compound 35, 2-Methyl-3-amide-N-(3,4,5-trifluorophenyl)-5-(2-tert-butylamino-oxalyl)-thiophene]
CC50 at 6 days [1]: > 100 µM
EC50 (hepatitis B virus (HBV)): 0.5 to 5 µM

CC#CCNC(=O)C(=O)c1cc(C(=O)Nc2ccc(F)c(Cl)c2)c(C)o1 [Compound 5, 2-Methyl-3-amide-N-(3-chloro-4-fluorophenyl)-5-(2-(2-alkynylbutylamino)-oxalyl)-furan]
CC50 at 6 days [1]: > 100 µM
EC50 (hepatitis B virus (HBV)): 5 to 50 µM

C#CCNC(=O)C(=O)c1c(C)c(C(=O)Nc2ccc3ncccc3c2)n(C)c1C [Compound 68, 1,3,5-Trimethyl-2-amide-N-(quinolin-6-yl)-4-(2-propargylamino-oxalyl)-pyrrole]
CC50 at 6 days [1]: > 100 µM
EC50 (hepatitis B virus (HBV)): 0.5 to 5 µM

Cc1oc(C(=O)C(=O)Nc2ccccc2)cc1C(=O)Nc1ccc(F)c(Cl)c1 [Compound 9, 2-Methyl-3-amide-N-(3-chloro-4-fluorophenyl)-5-(2-anilino-oxalyl)-furan]
CC50 at 6 days [1]: > 100 µM
EC50 (hepatitis B virus (HBV)): 5 to 50 µM

C#CC(C)(C)NC(=O)C(=O)c1sc(C)c(C(=O)Nc2ccc3occc3c2)c1C [Compound 39, 2,4-Dimethyl-3-amide-N-(benzofuran-5-yl)-5-(2-(1,1-dimethylpropynamido)-oxalyl)-Thiophene]
CC50 at 6 days [1]: > 100 µM
EC50 (hepatitis B virus (HBV)): ≤ 0.05 µM

C#CCNC(=O)C(=O)c1c(C)c(C(=O)Nc2ccc3c(c2)CCO3)n(C)c1C [Compound 69, 1,3,5-Trimethyl-2-amide-N-(2,3-dihydrobenzofuran-5-yl)-4-(2-propargylamino-oxalyl)-pyrrole]
CC50 at 6 days [1]: > 100 µM
EC50 (hepatitis B virus (HBV)): 0.05 to 0.5 µM

Cc1c(C(=O)C(=O)NC(C)(C)C)coc1C(=O)Nc1ccc(F)c(Cl)c1 [Compound 83, 2-Amide-N-(3-chloro-4-fluoro-phenyl)-3-methyl-4-(2-tert-butylamino-oxalyl)-furan]
CC50 at 6 days [1]: > 100 µM
EC50 (hepatitis B virus (HBV)): > 50 µM

Cc1oc(C(=O)C(=O)NC(C)(C)C)cc1C(=O)Nc1ccc(C(F)(F)F)cc1 [Compound 22, 2-Methyl-3-amide-N-(4-trifluoromethylphenyl)-5-(2-tert-butylamino-oxalyl)-furan]
CC50 at 6 days [1]: > 100 µM
EC50 (hepatitis B virus (HBV)): > 50 µM

C#Cc1cccc(NC(=O)c2cc(C(=O)C(=O)NC(C)(C)C)oc2C)c1 [Compound 28, 2-Methyl-3-amide-N-(3-alkynylphenyl)-5-(2-tert-butylamino-oxalyl)-furan]
CC50 at 6 days [1]: > 100 µM
EC50 (hepatitis B virus (HBV)): 5 to 50 µM

Cc1c(C(=O)C(=O)NC(C)(C)c2c[nH]nn2)c(C)n(C)c1C(=O)Nc1ccc2occc2c1 [Compound 78, 1,3,5-trimethyl-2-amide-N-(benzofuran-5-yl)-4-(2-(2-(1H-1,2,3-triazole-4-yl)-2-propylamino)-oxalyl)-pyrrole]
CC50 at 6 days [1]: > 100 µM
EC50 (hepatitis B virus (HBV)): ≤ 0.05 µM

C#CCNC(=O)C(=O)c1c(C)c(C(=O)Nc2ccc3nccnc3c2)n(C)c1C [Compound 67, 1,3,5-Trimethyl-2-amide-N-(quinoxalin-6-yl)-4-(2-propargylamino-oxalyl)-pyrrole]
CC50 at 6 days [1]: > 100 µM
EC50 (hepatitis B virus (HBV)): 0.5 to 5 µM

Cc1oc(C(=O)C(=O)NC2(C(F)(F)F)CC2)cc1C(=O)Nc1ccc(F)c(Cl)c1 [Compound 16, 2-Methyl-3-amide-N-(3-chloro-4-fluorophenyl)-5-(2-(1-trifluoromethyl-cyclopropylamino)-oxalyl)-furan]
CC50 at 6 days [1]: > 100 µM
EC50 (hepatitis B virus (HBV)): 0.05 to 0.5 µM

CC(C)(C)NC(=O)C(=O)c1cc(C(=O)Nc2ccc(F)cc2)c(C(C)(C)C)o1 [Compound 43, 2-tert-Butyl-3-amide-N-(4-fluorophenyl)-5-(2-tert-butylamino-oxalyl)-furan]
CC50 at 6 days [1]: > 100 µM
EC50 (hepatitis B virus (HBV)): 5 to 50 µM

C#CCNC(=O)C(=O)c1c(C)c(C(=O)Nc2ccc3c(ccn3C)c2)n(C)c1C [Compound 64, 1,3,5-Trimethyl-2-amide-N-(1-methyl-1H-indol-5-yl)-4-(2-propargylamino-oxalyl)-pyrrole]
CC50 at 6 days [1]: > 100 µM
EC50 (hepatitis B virus (HBV)): 0.5 to 5 µM

Cc1c(C(=O)C(=O)Nc2nccs2)c(C)n(C)c1C(=O)Nc1ccc2occc2c1 [Compound 59, 1,3,5-Trimethyl-2-amide-N-(benzofuran-5-yl)-4-(2-(thiazol-2-amino)-oxalyl)-pyrrole]
CC50 at 6 days [1]: > 100 µM
EC50 (hepatitis B virus (HBV)): ≤ 0.05 µM

Cc1oc(C(=O)C(=O)NCC#CC(C)C)cc1C(=O)Nc1ccc(F)c(Cl)c1 [Compound 6, 2-Methyl-3-amide-N-(3-chloro-4-fluorophenyl)-5-(2-(4-methyl-2-ynylpentylamino)-oxalyl)-furan]
CC50 at 6 days [1]: 82 µM
EC50 (hepatitis B virus (HBV)): 5 to 50 µM

Cc1sc(C(=O)C(=O)NC(C)(C)C)cc1C(=O)Nc1ccc(F)c(Cl)c1 [Compound 29, 2-Methyl-3-amide-N-(3-chloro-4-fluorophenyl)-5-(2-tert-butylamino-oxalyl)-thiophene]
CC50 at 6 days [1]: > 100 µM
EC50 (hepatitis B virus (HBV)): 0.05 to 0.5 µM

C=CCn1cc(CNC(=O)C(=O)c2cc(C(=O)Nc3ccc(F)c(Cl)c3)c(C)o2)nn1 [Compound 10, 2-Methyl-3-amide-N-(3-chloro-4-fluorophenyl)-5-(2-(1-allyl-1H[1,2,3]-triazole-4-methylamino)-oxalyl)-furan]
CC50 at 6 days [1]: > 100 µM
EC50 (hepatitis B virus (HBV)): > 50 µM

C#CCNC(=O)C(=O)c1c(C)c(C(=O)Nc2ccc3oncc3c2)n(C)c1C [Compound 74, 1,3,5-Trimethyl-2-amide-N-(benzisoxazol-5-yl)-4-(2-propargylamino-oxalyl)-pyrrole]
CC50 at 6 days [1]: > 100 µM
EC50 (hepatitis B virus (HBV)): 0.5 to 5 µM

Cc1c(C(=O)C(=O)NC(C)(C)C)csc1C(=O)Nc1ccc(F)c(Cl)c1 [Compound 85, 2-Amide-N-(3-chloro-4-fluoro-phenyl)-3-methyl-4-(2-tert-butylamino-oxalyl)-thiophene]
CC50 at 6 days [1]: 96 µM
EC50 (hepatitis B virus (HBV)): 0.5 to 5 µM

Cc1oc(C(=O)C(=O)NC(C)(C)C)c(Cl)c1C(=O)Nc1cc(F)c(F)c(F)c1 [Compound 49, 2-Methyl-3-amide-N-(3,4,5-trifluorophenyl)-4-chloro-5-(2-tert-butylamino-oxalyl)-furan]
CC50 at 6 days [1]: 47 µM
EC50 (hepatitis B virus (HBV)): 5 to 50 µM

COCC1(NC(=O)C(=O)c2sc(C)c(C(=O)Nc3ccc4occc4c3)c2C)COC1 [Compound 41]
CC50 at 6 days [1]: > 100 µM
EC50 (hepatitis B virus (HBV)): ≤ 0.05 µM

Cc1c(C(=O)C(=O)NC2CCCC2)c(C)n(C)c1C(=O)Nc1ccc2occc2c1 [Compound 58, 1,3,5-Trimethyl-2-amide-N-(benzofuran-5-yl)-4-(2-cyclopentylamino-oxalyl)-pyrrole]
CC50 at 6 days [1]: > 100 µM
EC50 (hepatitis B virus (HBV)): ≤ 0.05 µM

Cc1c(C(=O)C(=O)NC2(c3c[nH]nn3)CC(F)(F)C2)c(C)n(C)c1C(=O)Nc1ccc2occc2c1 [Compound 77, 1,3,5-trimethyl-2-amide-N-(benzofuran-5-yl)-4-(2-(3,3-difluoro-1-(1H-1,2,3-Triazol-4-yl)cyclobutane-1-amino)-oxalyl)-pyrrole]
CC50 at 6 days [1]: > 100 µM
EC50 (hepatitis B virus (HBV)): ≤ 0.05 µM

C#CCNC(=O)C(=O)c1c(C)c(C(=O)Nc2ccc3c(c2)ncn3C)n(C)c1C [Compound 72, 1,3,5-Trimethyl-2-amide-N-(1-methyl-1H-benzimidazol-5-yl)-4-(2-propargylamino-oxalyl)-Pyrrole]
CC50 at 6 days [1]: > 100 µM
EC50 (hepatitis B virus (HBV)): 0.5 to 5 µM
